The record followed here is patent US20200377496A1, “INDOLE AND BENZIMIDAZOLE DERIVATIVES AS DUAL 5-HT2A and 5-HT6 RECEPTOR ANTAGONISTS” (ADAMED PHARMA, S.A., priority 2018, published 2020).

For one experiment, the target named is human GPCR 5-HT2A (Homo sapiens, UniProt P28223). The experiment in a line: Cellular aequorin-based functional assay, 5-HT2A. Format: cell-based. As to conditions: for 5-HT2A AGO EC50 [nM]: agonist mode, CHO-K1 aequorin cells. The method, then: (§1) Preparation of Solutions of Test and Reference Compounds.
Chain of human GPCR 5-HT2A (P28223 whole entry): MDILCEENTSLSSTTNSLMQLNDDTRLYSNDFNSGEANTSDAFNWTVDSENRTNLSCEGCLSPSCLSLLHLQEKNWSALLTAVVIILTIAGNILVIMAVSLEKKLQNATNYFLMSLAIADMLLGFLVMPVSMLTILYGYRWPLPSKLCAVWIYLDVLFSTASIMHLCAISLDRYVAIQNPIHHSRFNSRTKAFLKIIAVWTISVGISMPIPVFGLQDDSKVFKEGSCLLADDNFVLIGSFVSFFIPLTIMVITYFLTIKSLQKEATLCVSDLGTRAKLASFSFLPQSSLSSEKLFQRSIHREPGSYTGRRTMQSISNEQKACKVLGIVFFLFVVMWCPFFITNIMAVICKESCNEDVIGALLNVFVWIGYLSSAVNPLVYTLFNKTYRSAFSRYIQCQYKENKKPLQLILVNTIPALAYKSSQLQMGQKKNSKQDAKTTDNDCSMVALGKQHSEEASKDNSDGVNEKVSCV
(§2) 1 mM stock solutions of the tested compounds were prepared in DMSO. Serial dilutions were prepared in 96-well microplate in assay buffers using automated pipetting system epMotion 5070 (Eppendorf). Two independent experiments in duplicates were performed and 6 to 10 concentrations were tested.
(§3) 5-HT2A and 5-HT6 Functional Activity Assays.
(§4) Cellular aequorin-based functional assays were performed with γ-irradiated recombinant CHO-K1 cells expressing mitochondrially-targeted Aequorin, human GPCR (5-HT2A or 5-HT6) and the promiscuous G protein α16 (PerkinElemer). Assays were performed according to the standard protocol provided by the manufacturer. After thawing, cells were transferred to assay buffer (DMEM/HAM's F12 with 0.1% protease-free BSA) and centrifuged. Cell pellet was resuspended in assay buffer and coelenterazine h was added at final concentrations of 5 μM. Cell suspension was incubated at 21° C., protected from light with constant agitation, for 4 hours and then diluted with assay buffer to a concentration of 250,000 cells/ml. After 1 hour incubation 50 yl cell suspension was dispensed using automatic injectors built in radiometric and luminescence plate counter MicroBeta2 LumiJET (PerkinElmer, USA) into white opaque 96-well microplate preloaded with tested compounds. Immediate light emission generated following calcium mobilization was recorded for 30-60 seconds. In antagonist mode, after 15-30 minutes incubation reference agonist was added to the above assay mix and light emission was recorded again. Final concentration of reference agonist was equal EC80: serotonin 40 nM for 5-HT6 receptor and α-methylserotonin 30 nM for 5-HT2A receptor. The assays were performed in the agonist mode (5-HT6 AGO and 5-HT2A AGO) as well as antagonist mode (5-HT6 ANT and 5-HT2A ANT).
(§5) IC50 and EC50 were determined by non-linear regression analysis using GraphPad Prism 6.0 software. The log IC50 was used to obtain the Kb by applying the Cheng-Prusoff approximation.

Experiment [1] concerns head twitches induced by 5-HT2A/C receptor agonist DOI. The experiment in a line: DOI-induced head twitches in Wistar rats. Format: in vivo. As to conditions: hydrochloride salt p.o. 180 min before observation; DOI 2.5 mg/kg i.p.; male Wistar rats. The method, then: Biological Example 3. Effects of Compounds 1 and 17, on Head Twitches Induced by a 5-HT2A/C receptor agonist, 1-(2,5-dimethoxy-4-Iodophenyl)-2-aminopropane hydrochloride (DOI) in Wistar Rats
Drug-naive male Wistar rats (Charles River, Sulzfeld, Germany) were used. Rats were housed four per standard plastic cage and kept in a room with constant environmental conditions (22±1° C., relative humidity 60%, a 12:12 light-dark cycle with lights on at 07:00 a.m.). Animals were supplied by the breeder 2 weeks before the onset of behavioral procedures. During this time, the subjects were weighted and handled several times. The rats were also habituated to p.o. administration of tested compounds in form of hydrochloride salt by gavage dosing of distilled water (1-2 mL). Tap water and standard lab chow (Labofeed H, WPIK, Kcynia, Poland) was available ad libitum.
All tests were carried out in a sound-attenuated experimental room between 10:00 a.m. and 04:00 p.m. DOI-induced head twitches were scored as described by Millan et al. (2000). Rats were injected with DOI (2.5 mg/kg, i.p.) and placed in glass observation cages (25×25×40 cm, W×H×L) with wood chip bedding on the floor. Five minutes later, head twitches were counted for 5 min. (300 s) by a trained observer. […]
Total numbers of head twitches (n/5 min.) were analyzed with the aid of the Kruskal-Wallis analysis of variance (ANOVA). […]

The next experiment concerns the target human GPCR 5-HT6 (Homo sapiens, UniProt P50406). In words: Cellular aequorin-based functional assay, 5-HT6. Format: cell-based. The conditions noted are these: for 5-HT6 AGO EC50 [nM]: agonist mode, CHO-K1 aequorin cells; for Kb: antagonist mode, reference agonist serotonin 40 nM (EC80), read-out: 5-HT6 ANT Kb. Here is the method:
as §1, §2, §3, §4, §5

Another experiment has as its target human 5-HT2A receptor (Homo sapiens, UniProt P28223). In words: 5-HT2A receptor binding assay ([3H]-ketanserin radioligand). Here is the method:
as §1
1 mM stock solutions of tested compounds were prepared in DMSO. Serial dilutions of compounds were prepared in 96-well microplate in assay buffers using automated pipetting system epMotion 5070 (Eppendorf). Each compound was tested in 10 concentrations from 1.0E-6 to 1.0E-11 M (final concentration).
5-HT2A Receptor Binding Assay.
Radioligand binding was performed using membranes from CHO K1 cells stably transfected with the human 5-HT2A receptor (PerkinElmer). All assays were carried out in duplicates. 50 μl working solution of the tested compounds, 50 μl [3H]-ketanserin (final concentration 1 nM) and 150 μl diluted membranes (7 μg protein per well) prepared in assay buffer (50 mM Tris, pH 7.4, 4 mM CaCl2, 0.1% ascorbic acid) were transferred to polypropylene 96-well microplate using 96-wells pipetting station Rainin Liquidator (MettlerToledo). Mianserin (10 μM) was used to define nonspecific binding. Microplate was covered with a sealing tape, mixed and incubated for 60 minutes at 27° C. The reaction was terminated by rapid filtration through GF/B filter mate presoaked with 0.5% polyethyleneimine for 30 minutes. Ten rapid washes with 200 μl 50 mM Tris buffer (4° C., pH 7.4) were performed using automated harvester system Harvester-96 MACH III FM (Tomtec). The filter mates were dried at 37° C. in forced air fan incubator and then solid scintilator MeltiLex was melted on filter mates at 90° C. for 5 minutes. Radioactivity was counted in MicroBeta2 scintillation counter (PerkinElmer). Data were fitted to a one-site curve-fitting equation with Prism 6 (GraphPad Software) and Ki values were estimated from the Cheng-Prusoff equation.

pKi: −log10 of the molar value. Like-named read-outs stand apart in the source and are kept apart here.

Chain of human GPCR 5-HT6 (P50406 whole entry): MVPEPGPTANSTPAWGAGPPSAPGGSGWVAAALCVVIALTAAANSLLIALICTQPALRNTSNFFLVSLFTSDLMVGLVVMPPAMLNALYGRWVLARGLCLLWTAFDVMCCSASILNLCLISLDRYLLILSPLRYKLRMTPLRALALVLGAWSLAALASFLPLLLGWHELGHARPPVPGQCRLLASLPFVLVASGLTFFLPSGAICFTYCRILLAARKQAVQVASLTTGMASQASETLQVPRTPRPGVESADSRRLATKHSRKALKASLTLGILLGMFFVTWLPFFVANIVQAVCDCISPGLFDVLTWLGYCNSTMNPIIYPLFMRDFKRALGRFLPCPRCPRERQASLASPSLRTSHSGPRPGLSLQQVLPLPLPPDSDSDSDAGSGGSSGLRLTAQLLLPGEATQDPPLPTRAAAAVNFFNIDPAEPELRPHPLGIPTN
Chain of human 5-HT2A receptor (P28223 whole entry): as the sequence (P28223 whole entry) above

With `FC(F)(F)c1nc2c(N3CCNCC3)cccc2n1Cc1ccccc1` [Compound 1, 1-benzyl-4-(piperazin-1-yl)-2-(trifluoromethyl)-1H-benzimidazole], on human GPCR 5-HT2A, the “5-HT2A AGO EC50 [nM]” value is on record as “N.C”. The Kb on human GPCR 5-HT2A (antagonist mode, reference agonist α-methylserotonin 30 nM (EC80), read-out: 5-HT2A ANT Kb) stood at 18 nM. Also, the “minimum effective dose (MED), attenuation of DOI-induced head twitches” value in experiment [1] is 3.0 mg/kg. At human GPCR 5-HT6, the “5-HT6 AGO EC50 [nM]” value is “N.C” and the Kb turned out to be 2.5 nM. Further, at human 5-HT2A receptor (membranes from CHO K1 cells with human 5-HT2A receptor, [3H]-ketanserin 1 nM, read-out: 5-HT2A Ki), the pKi (usually the negative decadic logarithm of the Ki, by convention in mol/L) is 8.38.
As to `FC(F)(F)c1cc2c(N3CCNCC3)cccc2n1Cc1ccco1` [Compound 17, 1-(furan-2-ylmethyl)-4-(piperazin-1-yl)-2-(trifluoromethyl)-1H-indole], at human GPCR 5-HT2A, the Kb came out at 10 nM and the “5-HT2A AGO EC50 [nM]” value is “N.C”. The “minimum effective dose (MED), attenuation of DOI-induced head twitches” value in experiment [1] worked out at 1.0 mg/kg. Besides, on human GPCR 5-HT6, the “5-HT6 AGO EC50 [nM]” value is given as “N.C” and the Kb is 0.47 nM. At human 5-HT2A receptor, this compound gave a negative logarithm of the Ki (pKi) of 8.80.
